Tested on: B. tabaci b-biotype adults and nymphs
Experiment: Field trial on silverleaf whitefly against conventional insecticide (Example 21)
Assay type: in vivo, Bemisia tabaci
Details: formulations 2.0 L/ha, Diafenthiuron 0.80 L/ha
Experimental: The trial was conducted in an irrigated conventional cotton crops in a cotton farm. […] Each replicated plot measured 24 m wide 100 m long.
Foliar applications of each treatment were made over two weeks. Pre-treatment counts were made visually of B. tabaci adults and nymphs, on the under-surface of leaves of cotton plants in each treatment. […] Data of both adults and nymphs were expressed as numbers per leaf for each treatment.
Treatment and sample dates were the independent variables.

CC(C)c1cc(Oc2ccccc2)cc(C(C)C)c1NC(=S)NC(C)(C)C [Diafenthiuron]
Bemisia tabaci adults per leaf, 3 DAT: 15.33 ± 1.45 a per leaf | Bemisia tabaci adults per leaf, 7 DAT: 20.33 ± 2.40 ab per leaf | Bemisia tabaci adults per leaf, 14 DAT: 12.00 ± 0.88 a per leaf | Bemisia tabaci nymphs per leaf, 3 DAT: 28.67 ± 7.22 b per leaf | Bemisia tabaci nymphs per leaf, 7 DAT: 15.33 ± 2.40 a per leaf | Bemisia tabaci nymphs per leaf, 14 DAT: 17.00 ± 1.73 b per leaf | Bemisia tabaci adults, 3 DAT (% mortality) (relative to the control): (54.7%) | Bemisia tabaci adults, 7 DAT (% mortality) (relative to the control): (32.2%) | Bemisia tabaci adults, 14 DAT (% mortality) (relative to the control): (34.5%) | Bemisia tabaci nymphs, 7 DAT (% mortality) (relative to the control): (22.1%) | Bemisia tabaci nymphs, 14 DAT (% mortality) (relative to the control): (60.6%) | Bemisia tabaci adults, 3 DAT (% mortality) (relative to the control, listed as conventional insecticide): 38.7%

Reference: patent publication US9271503B2, “Control of insect pests” (priority 2011, dated 2016)
